# Target: GLP-1 receptor (Homo sapiens (Human), UniProt P43220)
# Assay: Agonist activity against GLP-1 receptor, CRE-luciferase reporter (ONE-Glo) in CHO-K1/CRE-luc/GLP-1 receptor cells
# Type: cell-based
# Details: 6 h incubation
# Excerpt: This experiment was intended to test the agonist activity of the compound molecules against the GLP-1 receptor and evaluate the in vitro activity of the molecules according to EC50. The experiment adopted a ONE-Glo™ Luciferase Assay System (Promega, E6110). Under the action of compound molecules, GLP-1R downstream signaling pathways were activated to cause elevated cAMP level. The combination of cAMP and CRE could start the transcription expression of CRE downstream luciferase genes, the luciferase could emit fluorescence when reacting with substrates thereof, and the activity of the compound for agonizing GLP-1 receptors was reflected by measuring fluorescence signals through a ONE-Glo™ reagent.
# Stably-expressed CHO-K1/CRE-luc/GLP-1 receptor cell strains (self-construction of GLP-1 receptor plasmid; CRE-luc plasmid Promega E8471) were constructed. CHO-K1/CRE-luc/GLP-1 receptor cells were digested, and resuspended after centrifugation. […] The plate was incubated in an incubator for 16 h (37° C., 5% CO2).
# The compound was dissolved in DMSO to prepare a stock solution with an initial concentration of 20 mM. The starting concentration of the small molecule compound was 0.2 mM, and the compound underwent 3-fold serial dilution for a total of 10 concentration points, with DMSO at the 11th point. To another 96-well plate was added 95 μL of cell culture medium (DME/F-12+10% FBS), 5 μL of test samples with different concentrations were added to each well, followed by uniform mixing, and then 10 μL of test samples with different concentrations were added to each well, with two duplicate wells set for each sample. The plate was incubated in an incubator for 6 h (37° C., 5% CO2). The 96-well cell culture plate was taken out, and 100 μL of ONE-Glo™ reagent was added to each well, followed by incubation at room temperature for 10 min. The plate was placed in a microplate reader (EnVision 2105, PE) for determination of chemiluminescence.
# Data were processed and analyzed using Microsoft Excel and Graphpad Prism 5.
# Sequence of GLP-1 receptor (P43220 24-463): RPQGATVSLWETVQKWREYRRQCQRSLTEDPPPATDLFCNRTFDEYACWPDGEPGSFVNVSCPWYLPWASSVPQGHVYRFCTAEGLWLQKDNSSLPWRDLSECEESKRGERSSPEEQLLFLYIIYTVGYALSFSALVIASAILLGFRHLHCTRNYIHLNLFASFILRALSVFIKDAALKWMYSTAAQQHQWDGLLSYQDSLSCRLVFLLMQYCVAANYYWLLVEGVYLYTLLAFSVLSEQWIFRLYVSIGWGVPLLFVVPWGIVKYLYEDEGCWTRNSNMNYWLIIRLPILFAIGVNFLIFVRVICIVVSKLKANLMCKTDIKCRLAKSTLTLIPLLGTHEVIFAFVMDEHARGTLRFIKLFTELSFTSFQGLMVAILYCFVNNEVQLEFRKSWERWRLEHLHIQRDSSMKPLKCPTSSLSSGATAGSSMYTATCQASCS
SMILES,EC50 [nM],Emax [%]
"O=C(O)c1ccc2nc(CN3CCN(c4cccc5c4O[C@@H](c4ccc(Cl)cc4F)CO5)CC3)n(C[C@@H]3CCO3)c2c1 [Example 14, 2-((4-((S)-3-(4-Chloro-2-fluorophenyl)-2,3-dihydrobenzo[b][1,4]dioxan-5-yl)piperazin-1-yl)methyl)-1-(((S)-oxetan-2-yl)methyl)-1H-benzo[d]imidazole-6-carboxylic acid]",1.79,104
"O=C(O)c1ccc2nc(CN3CCC(c4cccc5c4OC(c4nc6ccccc6s4)CO5)CC3)n(C[C@@H]3CCO3)c2c1 (stereo partly drawn) [Example 1, 2-((4-(3-(Benzo[d]thiazol-2-yl)-2,3-dihydrobenzo[b][1,4]dioxan-5-yl)piperidin-1-yl)methyl)-1-(((S)-oxetan-2-yl)methyl)-1H-benzo[d]imidazole-6-carboxylic acid]",0.56,109
"CC1(c2ccc(Cl)cc2F)COc2cccc(C3CCN(Cc4nc5ccc(C(=O)O)cc5n4C[C@@H]4CCO4)CC3)c2O1 (stereo partly drawn) [Example 20, 2-((4-(3-(4-Chloro-2-fluorophenyl)-3-methyl-2,3-dihydrobenzo[b][1,4]dioxan-5-yl)piperidin-1-yl)methyl)-1-(((S)-oxetan-2-yl)methyl)-1H-benzo[d]imidazole-6-carboxylic acid]",51,90
"CC1(c2ccc(Cl)cc2F)COc2c(cccc2C2CCN(Cc3nc4ccc(C(=O)O)cc4n3C[C@@H]3CCO3)CC2)O1 (stereo partly drawn) [Example 18, 2-((4-(2-(4-Chloro-2-fluorophenyl)-2-methyl-2,3-dihydrobenzo[b][1,4]dioxan-5-yl)piperidin-1-yl)methyl)-1-(((S)-oxetan-2-yl)methyl)-1H-benzo[d]imidazole-6-carboxylic acid]",18.4,103
"O=C(O)c1ccc2nc(CN3CCC(c4cccc5c4OCC(c4nc6ccccc6s4)O5)CC3)n(C[C@@H]3CCO3)c2c1 (stereo partly drawn) [Example 9, 2-((4-(2-(Benzo[d]thiazol-2-yl)-2,3-dihydrobenzo[b][1,4]dioxan-5-yl)piperidin-1-yl)methyl)-1-(((S)-oxetan-2-yl)methyl)-1H-benzo[d]imidazole-6-carboxylic acid]",2.05,104
"O=C(O)c1ccc2nc(CN3CCC(c4cccc5c4OC(c4ccc(Cl)cc4F)CO5)CC3)n(C[C@@H]3CCO3)c2n1 (stereo partly drawn) [Example 12, 2-((4-(3-(4-Chloro-2-fluorophenyl)-2,3-dihydrobenzo[b][1,4]dioxan-5-yl)piperidin-1-yl)methyl)-3-((S)-oxetan-2-ylmethyl)-3H-imidazo[4,5-b]pyridine-5-carboxylic acid]",1.72,114
"N#Cc1ccc(C2COc3cccc(C4CCN(Cc5nc6ccc(C(=O)O)cc6n5C[C@@H]5CCO5)CC4)c3O2)c(F)c1 (stereo partly drawn) [Example 16, 2-((4-(3-(4-Cyano-2-fluorophenyl)-2,3-dihydrobenzo[b][1,4]dioxan-5-yl)piperidin-1-yl)methyl)-1-((S)-oxetan-2-ylmethyl)-1H-benzo[d]imidazole-6-carboxylic acid]",1.42,116
O=C(O)c1ccc2nc(CN3CC=C(c4cccc5c4OC(c4ccc(Cl)cc4F)CO5)CC3)n(C[C@@H]3CCO3)c2c1 (some centres unmarked) [Example 17],9.9,112
"O=C(O)c1ccc2nc(CN3CCC(c4cccc5c4OC[C@@H](c4nc6ccccc6s4)O5)CC3)n(C[C@@H]3CCO3)c2c1 [Example 11, 2-((4-((S)-2-(Benzo[d]thiazol-2-yl)-2,3-dihydrobenzo[b][1,4]dioxan-5-yl)piperidin-1-yl)methyl)-1-(((S)-oxetan-2-yl)methyl)-1H-benzo[d]imidazole-6-carboxylic acid]",1.68,104
"O=C(O)c1ccc2nc(CN3CCC(c4cccc5c4OC[C@H](c4nc6ccccc6s4)O5)CC3)n(C[C@@H]3CCO3)c2c1 [Example 10, 2-((4-((R)-2-(Benzo[d]thiazol-2-yl)-2,3-dihydrobenzo[b][1,4]dioxan-5-yl)piperidin-1-yl)methyl)-1-(((S)-oxetan-2-yl)methyl)-1H-benzo[d]imidazole-6-carboxylic acid]",1.19,103
"O=C(O)c1ccc2nc(CN3CCC(c4cccc5c4OC(c4ccc(Cl)cn4)CO5)CC3)n(C[C@@H]3CCO3)c2c1 (stereo partly drawn) [Example 13, 2-((4-(3-(5-Chloropyridin-2-yl)-2,3-dihydrobenzo[b][1,4]dioxan-5-yl)piperidin-1-yl)methyl)-1-(((S)-oxetan-2-yl)methyl)-1H-benzo[d]imidazole-6-carboxylic acid]",1.76,108

# Target: hERG potassium channel (Homo sapiens (Human), UniProt Q12809)
# Assay: Blocking effect on hERG potassium currents, manual patch-clamp in CHO cells stably expressing hERG channel
# Type: cell-based
# Details: read-out: IC50 for the blocking effect on the hERG potassium ion channel
# Excerpt: This example is intended to assess the blocking effect of the compounds of the present disclosure and positive compound 1 (see the compound of Example 7 on page 125 of WO2019239319A1) on hERG potassium currents in a stable cell strain transfected with an hERG potassium channel by a manual patch-clamp assay. The structure of positive compound 1 is shown below:
# The cells used in this experiment were from a CHO cell line (provided by Sophion Bioscience, Denmark) transfected with hERG cDNA and stably expressing hERG channel at cell passage number of P5. Cells were cultured in a medium containing the following components (all from Invitrogen): Ham's F12 medium, 10% (v/v) inactivated fetal bovine serum, 100 μg/mL hygromycin B, and 100 μg/mL geneticin.
# CHO hERG cells were grown in a culture dish containing the above culture medium and cultured in an incubator at 37° C. with 5% CO2. 24-48 h before the electrophysiological experiment, CHO hERG cells were transferred to round slides placed in the culture dish and grown in the same culture medium and culture conditions as above. The density of CHO hERG cells on each round slide was required to achieve the requirement that most cells were independent and individual.
# In this experiment, a manual patch-clamp system (HEKA EPC-10 signal amplifier and digital conversion system, purchased from HEKA Electronics, Germany) was used for whole cell current recording. Round slides with CHO hERG cells grown on the surface were placed in an electrophysiological recording chamber under an inverted microscope. The chamber was continuously perfused with extracellular fluid (approximately 1 mL/min). The experimental procedures were performed by conventional whole-cell patch-clamp current recording technology. Unless otherwise stated, the experiment was performed at room temperature ([…]). The cells were clamped at a voltage of −80 mV. The cell clamp voltage was depolarized to +20 mV to activate the hERG potassium channel, and then clamped to −50 mV 5 s later to eliminate inactivation and generate tail currents. The tail current peak was used as a value for the numeral value of the hERG current. After the hERG potassium currents recorded in the above step were stable under the continuous extracellular fluid perfusion in the recording chamber, the drug to be tested could be added for perfusion until the inhibitory effect of the drug on the hERG current reached a stable state. Generally, the last superposition of 3 consecutive current recording lines is used as a criterion for determining whether a stable state is reached. […]
# The experimental data were analyzed by data analysis software supplied by HEKA Patchmaster(V2x73.2), Microsoft Excel, and Graphpad Prism 5.0. […]
# Sequence of hERG potassium channel (Q12809 whole entry): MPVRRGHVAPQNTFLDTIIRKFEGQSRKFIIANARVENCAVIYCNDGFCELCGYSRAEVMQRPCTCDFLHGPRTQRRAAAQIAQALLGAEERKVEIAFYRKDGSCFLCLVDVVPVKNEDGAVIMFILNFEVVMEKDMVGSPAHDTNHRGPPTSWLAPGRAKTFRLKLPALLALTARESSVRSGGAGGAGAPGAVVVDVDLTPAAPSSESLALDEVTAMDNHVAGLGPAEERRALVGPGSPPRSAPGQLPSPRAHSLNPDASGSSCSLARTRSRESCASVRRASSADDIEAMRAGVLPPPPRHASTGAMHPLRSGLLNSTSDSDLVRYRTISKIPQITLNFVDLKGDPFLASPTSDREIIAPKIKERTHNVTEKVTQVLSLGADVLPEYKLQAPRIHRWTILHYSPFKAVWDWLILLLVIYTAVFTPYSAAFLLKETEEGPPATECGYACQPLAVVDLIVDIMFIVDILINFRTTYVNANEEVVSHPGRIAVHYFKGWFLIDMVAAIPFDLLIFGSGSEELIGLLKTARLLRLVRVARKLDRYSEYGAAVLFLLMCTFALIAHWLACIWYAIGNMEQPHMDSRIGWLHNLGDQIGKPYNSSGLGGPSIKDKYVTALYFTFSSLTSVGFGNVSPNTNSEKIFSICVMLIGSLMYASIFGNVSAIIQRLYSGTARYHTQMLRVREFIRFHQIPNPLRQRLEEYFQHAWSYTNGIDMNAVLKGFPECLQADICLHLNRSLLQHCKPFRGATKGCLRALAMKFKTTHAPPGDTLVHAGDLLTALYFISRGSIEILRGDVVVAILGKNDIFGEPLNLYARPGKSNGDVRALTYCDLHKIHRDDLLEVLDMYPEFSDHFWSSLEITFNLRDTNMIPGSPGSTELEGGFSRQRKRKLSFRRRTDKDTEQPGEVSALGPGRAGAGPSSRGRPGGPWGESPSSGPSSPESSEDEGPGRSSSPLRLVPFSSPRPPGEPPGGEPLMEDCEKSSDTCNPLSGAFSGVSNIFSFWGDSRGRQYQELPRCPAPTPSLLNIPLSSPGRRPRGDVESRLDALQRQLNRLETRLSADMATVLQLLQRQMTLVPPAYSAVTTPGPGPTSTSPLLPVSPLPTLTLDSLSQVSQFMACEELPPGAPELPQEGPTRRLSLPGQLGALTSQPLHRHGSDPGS
row,SMILES,IC50 [nM]
1,"O=C(O)c1ccc2nc(CN3CCC(c4cccc5c4OC(c4ccc(Cl)cc4F)CO5)CC3)n(C[C@@H]3CCO3)c2n1 (stereo partly drawn) [Example 12, 2-((4-(3-(4-Chloro-2-fluorophenyl)-2,3-dihydrobenzo[b][1,4]dioxan-5-yl)piperidin-1-yl)methyl)-3-((S)-oxetan-2-ylmethyl)-3H-imidazo[4,5-b]pyridine-5-carboxylic acid]",26100

# Source: patent US20230322756A1, “FUSED IMIDAZOLE DERIVATIVE, PREPARATION METHOD THEREFOR, AND MEDICAL USE THEREOF” (JIANGSU HENGRUI MEDICINE CO., LTD., priority 2020, published 2023)
